The text below walks through data of ChEMBL document CHEMBL1828614, “Discovery of a new class of HMG-CoA reductase inhibitor from Polyalthia longifolia as potential lipid lowering agent” (Eur J Med Chem, 2011).

For data set [1], the system named is Syrian golden hamster. Description: Toxicity in Syrian golden hamster assessed as effect of food intake at 25 mg/kg, po. The data set is classed as organism-based, Mesocricetus auratus. Further details: dose 25 mg/kg, route oral. As to conditions: in vivo.
Data set [2] concerns Syrian golden hamster. Briefly: Toxicity in Syrian golden hamster assessed as weight gain at 25 mg/kg, po. It is filed as organism-based, Mesocricetus auratus. On the set-up: dose 25 mg/kg, route oral. As to conditions: in vivo.
In data set [3] the test system is Syrian golden hamster. Description: Hypolipidemic activity in high fat diet fed Syrian golden hamster assessed as reduction of triglyceride level at 5 mg/kg, po for 7 days. It is filed as functional, Mesocricetus auratus. Further details: scale not given: the % may be the effect or the level left.
Data set [4] has as its system Syrian golden hamster. Briefly: Hypolipidemic activity in high fat diet fed Syrian golden hamster assessed as reduction of triglyceride level at 10 mg/kg, po for 7 days. It is filed as functional, Mesocricetus auratus. On the set-up: scale not given: the % may be the effect or the level left.
Data set [5] concerns Syrian golden hamster. Description: Hypolipidemic activity in high fat diet fed Syrian golden hamster assessed as reduction of triglyceride level at 25 mg/kg, po for 7 days. The data set is classed as functional, Mesocricetus auratus. Further details: scale not given: the % may be the effect or the level left.
The test system of data set [6] is Syrian golden hamster. Briefly: Hypolipidemic activity in high fat diet fed Syrian golden hamster assessed as reduction of triglyceride level at 50 mg/kg, po for 7 days. It is filed as functional, Mesocricetus auratus. Further details: scale not given: the % may be the effect or the level left.
In data set [7] the test system is Syrian golden hamster. Briefly: Hypolipidemic activity in high fat diet fed Syrian golden hamster assessed as reduction of triglyceride level at 100 mg/kg, po for 7 days. It is filed as functional, Mesocricetus auratus. Further details: scale not given: the % may be the effect or the level left.
The test system of data set [8] is Syrian golden hamster. Briefly: Hypolipidemic activity in high fat diet fed Syrian golden hamster assessed as reduction of total cholesterol level at 5 mg/kg, po for 7 days. It is filed as functional, Mesocricetus auratus. Further details: scale not given: the % may be the effect or the level left.
Data set [9] concerns Syrian golden hamster. Description: Hypolipidemic activity in high fat diet fed Syrian golden hamster assessed as reduction of total cholesterol level at 10 mg/kg, po for 7 days. It is filed as functional, Mesocricetus auratus. On the set-up: scale not given: the % may be the effect or the level left.
Data set [10] has as its system Syrian golden hamster. Briefly: Hypolipidemic activity in high fat diet fed Syrian golden hamster assessed as reduction of total cholesterol level at 25 mg/kg, po for 7 days. It is filed as functional, Mesocricetus auratus. On the set-up: scale not given: the % may be the effect or the level left.
In data set [11] the test system is Syrian golden hamster. Briefly: Hypolipidemic activity in high fat diet fed Syrian golden hamster assessed as reduction of total cholesterol level at 50 mg/kg, po for 7 days. On the set-up: scale not given: the % may be the effect or the level left. The data set is classed as functional, Mesocricetus auratus.
The test system of data set [12] is Syrian golden hamster. Briefly: Hypolipidemic activity in high fat diet fed Syrian golden hamster assessed as reduction of total cholesterol level at 100 mg/kg, po for 7 days. On the set-up: scale not given: the % may be the effect or the level left. It is filed as functional, Mesocricetus auratus.
Data set [13] concerns Syrian golden hamster. Briefly: Hypolipidemic activity in high fat diet fed Syrian golden hamster assessed as reduction of glycerol level at 5 mg/kg, po for 7 days. On the set-up: scale not given: the % may be the effect or the level left. It is filed as functional, Mesocricetus auratus.
In data set [14] the test system is Syrian golden hamster. Description: Hypolipidemic activity in high fat diet fed Syrian golden hamster assessed as reduction of glycerol level at 10 mg/kg, po for 7 days. It is filed as functional, Mesocricetus auratus. On the set-up: scale not given: the % may be the effect or the level left.
The subject of data set [15] is Syrian golden hamster. Briefly: Hypolipidemic activity in high fat diet fed Syrian golden hamster assessed as reduction of glycerol level at 25 mg/kg, po for 7 days. It is filed as functional, Mesocricetus auratus. On the set-up: scale not given: the % may be the effect or the level left.
Data set [16] relates to Syrian golden hamster. Briefly: Hypolipidemic activity in high fat diet fed Syrian golden hamster assessed as reduction of glycerol level at 50 mg/kg, po for 7 days. It is filed as functional, Mesocricetus auratus. On the set-up: scale not given: the % may be the effect or the level left.
Data set [17] deals with Syrian golden hamster. Description: Hypolipidemic activity in high fat diet fed Syrian golden hamster assessed as reduction of glycerol level at 100 mg/kg, po for 7 days. The data set is classed as functional, Mesocricetus auratus. On the set-up: scale not given: the % may be the effect or the level left.
For data set [18], the system named is Syrian golden hamster. Briefly: Hypolipidemic activity in high fat diet fed Syrian golden hamster assessed as increase in HDL-cholesterol-total cholesterol ratio at 5 mg/kg, po for 7 days. The data set is classed as functional, Mesocricetus auratus.
For data set [19], the system named is Syrian golden hamster. Briefly: Hypolipidemic activity in high fat diet fed Syrian golden hamster assessed as increase in HDL-cholesterol-total cholesterol ratio at 10 mg/kg, po for 7 days. The data set is classed as functional, Mesocricetus auratus.
Data set [20] deals with Syrian golden hamster. Briefly: Hypolipidemic activity in high fat diet fed Syrian golden hamster assessed as increase in HDL-cholesterol-total cholesterol ratio at 25 mg/kg, po for 7 days. The data set is classed as functional, Mesocricetus auratus.
Data set [21] concerns Syrian golden hamster. Briefly: Hypolipidemic activity in high fat diet fed Syrian golden hamster assessed as increase in HDL-cholesterol-total cholesterol ratio at 50 mg/kg, po for 7 days. It is filed as functional, Mesocricetus auratus.
Data set [22] concerns Syrian golden hamster. Description: Hypolipidemic activity in high fat diet fed Syrian golden hamster assessed as increase in HDL-cholesterol-total cholesterol ratio at 100 mg/kg, po for 7 days. It is filed as functional, Mesocricetus auratus.
Data set [23] addresses T1, 3-hydroxy-3-methylglutaryl-coenzyme A reductase (Homo sapiens, UniProt P04035).
T1 sequence (P04035 whole entry): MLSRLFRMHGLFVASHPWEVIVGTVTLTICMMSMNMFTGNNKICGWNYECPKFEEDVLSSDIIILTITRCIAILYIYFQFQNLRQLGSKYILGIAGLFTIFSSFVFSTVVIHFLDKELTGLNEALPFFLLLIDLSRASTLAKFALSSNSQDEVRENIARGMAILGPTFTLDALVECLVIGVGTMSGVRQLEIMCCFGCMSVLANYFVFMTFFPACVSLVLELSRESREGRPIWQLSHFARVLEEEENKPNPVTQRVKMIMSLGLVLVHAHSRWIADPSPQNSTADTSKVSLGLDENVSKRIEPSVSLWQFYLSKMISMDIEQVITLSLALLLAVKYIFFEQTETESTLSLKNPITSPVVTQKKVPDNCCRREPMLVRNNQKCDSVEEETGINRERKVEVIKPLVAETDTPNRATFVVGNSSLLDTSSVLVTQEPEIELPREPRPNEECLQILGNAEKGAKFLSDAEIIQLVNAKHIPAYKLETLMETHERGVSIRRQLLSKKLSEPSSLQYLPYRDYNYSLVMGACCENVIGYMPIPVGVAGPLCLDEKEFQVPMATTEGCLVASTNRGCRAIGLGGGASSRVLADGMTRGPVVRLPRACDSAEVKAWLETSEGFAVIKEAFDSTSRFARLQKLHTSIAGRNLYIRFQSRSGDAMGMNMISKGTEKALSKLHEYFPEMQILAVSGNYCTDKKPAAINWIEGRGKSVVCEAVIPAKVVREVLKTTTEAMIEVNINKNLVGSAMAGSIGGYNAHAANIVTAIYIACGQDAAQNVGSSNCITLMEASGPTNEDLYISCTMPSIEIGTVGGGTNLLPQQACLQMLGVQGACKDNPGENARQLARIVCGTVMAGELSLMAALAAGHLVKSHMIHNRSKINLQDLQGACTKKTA
Description: Inhibition of HMG-CoA reductase using HMG-CoA as substrate by spectrophotometry in presence of NADPH.

Data set [24] can be described thus: Tmax in high fat diet fed Syrian golden hamster at 25 mg/kg, po. The data set is classed as ADME, organism-based, Mesocricetus auratus. Further details: dose 25 mg/kg, route oral. As to conditions: in vivo.
Data set [25] in a line: Cmax in high fat diet fed Syrian golden hamster at 25 mg/kg, po. The data set is classed as ADME, organism-based, Mesocricetus auratus. On the set-up: dose 25 mg/kg, route oral. As to conditions: in vivo.
The nature of data set [26]: AUC (0 to t) in high fat diet fed Syrian golden hamster at 25 mg/kg, po. The data set is classed as ADME, organism-based, Mesocricetus auratus. Further details: dose 25 mg/kg, route oral. As to conditions: plasma.
In data set [27] the test system is Syrian golden hamster. Description: Apparent volume of distribution in high fat diet fed Syrian golden hamster at 25 mg/kg, po. The data set is classed as ADME, organism-based, Mesocricetus auratus. Further details: dose 25 mg/kg, route oral. As to conditions: in vivo.
Data set [28] in a line: Apparent oral clearance in high fat diet fed Syrian golden hamster at 25 mg/kg, po. It is filed as ADME, organism-based, Mesocricetus auratus. As to conditions: in vivo. Further details: dose 25 mg/kg, route oral.
The nature of data set [29]: Mean residence time in high fat diet fed Syrian golden hamster at 25 mg/kg, po. As to conditions: in vivo. The data set is classed as ADME, organism-based, Mesocricetus auratus. On the set-up: dose 25 mg/kg, route oral.

pIC50: −log10 of the molar value.

For orientation: pIC50 means the IC50 on a negative log10 scale, so that one unit is a factor of ten. One may read the Tmax as the time at which the peak concentration occurs. By Cmax is commonly meant the maximum level reached in the sampled fluid or tissue. For orientation: AUC(0-t) means exposure summed from dosing to a finite time, without extrapolation to infinity. What is called CL/F is clearance divided by bioavailability, as obtained after extravascular dosing. Broadly, the MRT is the average time that molecules of a dose stay in the body.

Regarding `CC1=CCC[C@@H]2[C@@](C)(CC/C(C=O)=C\C(=O)O)[C@H](C)CC[C@@]12C`, the Activity entry in data set [1] and in data set [2] was “Non-toxic” throughout.
As for `C=C1[C@@H](O)CC[C@@H]2[C@@](C)(CCC3=CC(=O)O[C@@H]3O)[C@H](C)CC[C@@]12C`, the Activity result in data set [1] and in data set [2] was “Non-toxic” throughout.
As for `CC1=CCC[C@@H]2[C@@](C)(CCC3=CC(=O)O[C@@H]3O)[C@H](C)CC[C@@]12C`, the Activity in data set [3] is recorded as 19%; in data set [4], 26%; in data set [5] it was 45%; in data set [6], 46%; in [7], 43%; in [8], 27%. Also, the Activity came to 23% in [9]; 41% in data set [10]; 55% in [11]; 54% in data set [12]; 10% in data set [13]; 5% in data set [14]. The Activity in data set [15] was 37%; in data set [16], 48%; in data set [17] it was 43%; in data set [1], “Non-toxic”; in data set [2], “Non-toxic”. The Ratio turned out to be 12 in [18]; 12 in data set [19]; 48 in [20]; 54 in data set [21]; 46 in data set [22]. In [23], the pIC50 is 4.52. In addition, the Tmax in data set [24] was 0.5 h. The concentration in data set [25] peaked (Cmax) at 2490 ng/mL. The same compound yielded an AUC(0-t) in data set [26] of 5740 ng·h/mL. For the same compound, the Vz in [27] was 17.78 L/kg. The CL/F in data set [28] is 72.5 mL/min/kg. Besides, the MRT in data set [29] amounted to 4.52 h.
Turning to `CC1=C(C=O)CC2[C@@]1(C)CC[C@@H](C)[C@]2(C)CCC1=CC(=O)O[C@@H]1O` (mixture of isomers), the Activity result in data set [1] and in data set [2] was “Non-toxic” each time.
On to `CC[C@H](C)C(=O)O[C@H]1C[C@@H](C)C=C2C=C[C@H](C)[C@H](CC[C@@H]3C[C@@H](O)CC(=O)O3)[C@H]21` [LOVASTATIN], for which the results for the Activity in data set [5], in data set [10] and in data set [15] were 29%, 9% and 35%, respectively.
